Values joined by “and” are separate entries in the source; they are usually repeats but may differ in a detail not shown here. Identical values can stand only once.
Key:
[1] = organism: Rattus norvegicus; test: Effective dose was evaluated for drug discrimination in I-trained rats; assay type: functional
[2] = tested on: Rattus norvegicus; test: Momoamine and metabolic levels observed 1 week following acute dosing against at a dose of 20 mg/kg Frontal cortex DOPAC; assay type: ADME, organism-based; set-up: dose 20 mg/kg; settings: in vivo, 168 h
[3] = tested on: Rattus norvegicus; test: Momoamine and metabolic levels observed 1 week following acute dosing against at a dose of 20 mg/kg Frontal cortex HVA; assay type: ADME, organism-based; set-up: dose 20 mg/kg; settings: in vivo, 168 h
[4] = tested on: Rattus norvegicus; test: Momoamine and metabolic levels observed 1 week following acute dosing against at a dose of 20 mg/kg Frontal cortex NE; assay type: ADME, organism-based; set-up: dose 20 mg/kg; settings: in vivo, 168 h
[5] = tested on: Rattus norvegicus; test: Momoamine and metabolic levels observed 1 week following acute dosing against at a dose of 20 mg/kg Frontal cortex DA; assay type: ADME, organism-based; set-up: dose 20 mg/kg; settings: in vivo, 168 h
[6] = tested on: Rattus norvegicus; test: Momoamine and metabolic levels observed 1 week following acute dosing against at a dose of 10 mg/kg Hippocampus 5-HT; assay type: ADME, organism-based; set-up: dose 10 mg/kg; settings: in vivo, 168 h
[7] = tested on: Rattus norvegicus; test: Momoamine and metabolic levels observed 1 week following acute dosing against at a dose of 10 mg/kg Hippocampus NE; assay type: ADME, organism-based; set-up: dose 10 mg/kg; settings: in vivo, 168 h
[8] = tested on: Rattus norvegicus; test: Momoamine and metabolic levels observed 1 week following acute dosing at a dose of 10 mg/kg Frontal cortex 5-HIAA; assay type: ADME, organism-based; set-up: dose 10 mg/kg; settings: in vivo, 168 h
[9] = tested on: Rattus norvegicus; test: Momoamine and metabolic levels observed 1 week following acute dosing at a dose of 10 mg/kg Frontal cortex 5-HT; assay type: ADME, organism-based; set-up: dose 10 mg/kg; settings: in vivo, 168 h
[10] = tested on: Rattus norvegicus; test: Momoamine and metabolic levels observed 1 week following acute dosing at a dose of 10 mg/kg Frontal cortex DA; assay type: ADME, organism-based; set-up: dose 10 mg/kg; settings: in vivo, 168 h
[11] = tested on: Rattus norvegicus; test: Momoamine and metabolic levels observed 1 week following acute dosing at a dose of 10 mg/kg Frontal cortex DOPAC; assay type: ADME, organism-based; set-up: dose 10 mg/kg; settings: in vivo, 168 h
[12] = tested on: Rattus norvegicus; test: Momoamine and metabolic levels observed 1 week following acute dosing against at a dose of 20 mg/kg Hippocampus NE; assay type: ADME, organism-based; set-up: dose 20 mg/kg; settings: in vivo, 168 h
[13] = tested on: Rattus norvegicus; test: Momoamine and metabolic levels observed 2 weeks following sub-acute dosing against Frontal cortex 5-HIAA; assay type: ADME, organism-based; settings: in vivo, 336 h
[14] = tested on: Rattus norvegicus; test: Momoamine and metabolic levels observed 2 weeks following sub-acute dosing against Frontal cortex 5-HT; assay type: ADME, organism-based; settings: in vivo, 336 h
[15] = tested on: Rattus norvegicus; test: Momoamine and metabolic levels observed 2 weeks following sub-acute dosing against Frontal cortex DA; assay type: ADME, organism-based; settings: in vivo, 336 h
[16] = tested on: Rattus norvegicus; test: Momoamine and metabolic levels observed 2 weeks following sub-acute dosing against Frontal cortex DOPAC; assay type: ADME, organism-based; settings: in vivo, 336 h
[17] = tested on: Rattus norvegicus; test: Momoamine and metabolic levels observed 2 weeks following sub-acute dosing against Frontal cortex NE; assay type: ADME, organism-based; settings: in vivo, 336 h
[18] = tested on: Rattus norvegicus; test: Momoamine and metabolic levels observed 2 weeks following sub-acute dosing against Hippocampus 5-HIAA; assay type: ADME, organism-based; settings: in vivo, 336 h
[19] = tested on: Rattus norvegicus; test: Momoamine and metabolic levels observed 2 weeks following sub-acute dosing against Hippocampus 5-HT; assay type: ADME, organism-based; settings: in vivo, 336 h
[20] = tested on: Rattus norvegicus; test: Momoamine and metabolic levels observed 1 week following acute dosing against at a dose of 20 mg/kg Frontal cortex 5-HIAA; assay type: ADME, organism-based; set-up: dose 20 mg/kg; settings: in vivo, 168 h
[21] = tested on: Rattus norvegicus; test: Momoamine and metabolic levels observed 1 week following acute dosing against at a dose of 20 mg/kg Frontal cortex 5-HT; assay type: ADME, organism-based; set-up: dose 20 mg/kg; settings: in vivo, 168 h
[22] = tested on: Rattus norvegicus; test: Momoamine and metabolic levels observed 1 week following acute dosing at a dose of 10 mg/kg Frontal cortex HVA; assay type: ADME, organism-based; set-up: dose 10 mg/kg; settings: in vivo, 168 h
[23] = tested on: Rattus norvegicus; test: Momoamine and metabolic levels observed 1 week following acute dosing at a dose of 10 mg/kg Frontal cortex NE; assay type: ADME, organism-based; set-up: dose 10 mg/kg; settings: in vivo, 168 h
[24] = tested on: Rattus norvegicus; test: Momoamine and metabolic levels observed 1 week following acute dosing at a dose of 10 mg/kg Hippocampus 5-HIAA; assay type: ADME, organism-based; set-up: dose 10 mg/kg; settings: in vivo, 168 h
[25] = tested on: Rattus norvegicus; test: Momoamine and metabolic levels observed 2 weeks following sub-acute dosing against Hippocampus NE; assay type: ADME, organism-based; settings: in vivo, 336 h
[26] = tested on: Rattus norvegicus; test: Momoamine and metabolic levels observed at 3 hr postdrug against, at a dose of 20 mg/kg Frontal cortex 5-HIAA; assay type: ADME, organism-based; set-up: dose 20 mg/kg; settings: in vivo
[27] = tested on: Rattus norvegicus; test: Momoamine and metabolic levels observed at 3 hr postdrug against, at a dose of 20 mg/kg Frontal cortex 5-HT; assay type: ADME, organism-based; set-up: dose 20 mg/kg; settings: in vivo
[28] = tested on: Rattus norvegicus; test: Momoamine and metabolic levels observed at 3 hr postdrug against, at a dose of 20 mg/kg Frontal cortex DA; assay type: ADME, organism-based; set-up: dose 20 mg/kg; settings: in vivo
[29] = tested on: Rattus norvegicus; test: Momoamine and metabolic levels observed at 3 hr postdrug against, at a dose of 20 mg/kg Frontal cortex DOPAC; assay type: ADME, organism-based; set-up: dose 20 mg/kg; settings: in vivo
[30] = tested on: Rattus norvegicus; test: Momoamine and metabolic levels observed at 3 hr postdrug against, at a dose of 20 mg/kg Frontal cortex NE; assay type: ADME, organism-based; set-up: dose 20 mg/kg; settings: in vivo
[31] = tested on: Rattus norvegicus; test: Momoamine and metabolic levels observed at 3 hr postdrug against, at a dose of 20 mg/kg Hippocampus 5-HIAA; assay type: ADME, organism-based; set-up: dose 20 mg/kg; settings: in vivo
[32] = tested on: Rattus norvegicus; test: Momoamine and metabolic levels observed at 3 h postdrug against, at a dose of 20 mg/kg Hippocampus 5-HT; assay type: ADME, organism-based; set-up: dose 20 mg/kg; settings: in vivo
[33] = tested on: Rattus norvegicus; test: Momoamine and metabolic levels observed at 3 hr postdrug against, at a dose of 20 mg/kg Hippocampus NE; assay type: ADME, organism-based; set-up: dose 20 mg/kg; settings: in vivo
[34] = tested on: Rattus norvegicus; test: Momoamine and metabolic levels observed 1 week following acute dosing against at a dose of 20 mg/kg Hippocampus 5-HIAA; assay type: ADME, organism-based; set-up: dose 20 mg/kg; settings: in vivo, 168 h
[35] = tested on: Rattus norvegicus; test: Momoamine and metabolic levels observed 1 week following acute dosing against at a dose of 20 mg/kg Hippocampus 5-HT; assay type: ADME, organism-based; set-up: dose 20 mg/kg; settings: in vivo, 168 h
[36] = tested on: Rattus norvegicus; test: Effective dose was evaluated for drug discrimination in I-trained rats, when given at a dose of 0.25 micro mol/kg; assay type: functional
[37] = tested on: Rattus norvegicus; test: Effective dose was evaluated for drug discrimination in I-trained rats, when given at a dose of 0.25 mg/kg; assay type: functional
[38] = tested on: Rattus norvegicus; test: Effective dose was evaluated for drug discrimination in I-trained rats, when given at a dose of 1.16 micro mol/kg; assay type: functional
[39] = organism: Rattus norvegicus; test: Compound was evaluated for the uptake inhibition of [3H]-5-HT in rats; assay type: functional
[40] = tested on: Rattus norvegicus; test: Percentage of non disrupted rats that selected the drug lever, when given at a dose of 0.25 mg/kg; assay type: functional
[41] = tested on: Rattus norvegicus; test: Percentage of non disrupted rats that selected the drug lever, when given at a dose of 0.25 mg/kg in S-Amphetamine-Trained rats; assay type: functional
[42] = tested on: Rattus norvegicus; test: Percentage of non disrupted rats that selected the drug lever, when given at a dose of 0.5 mg/kg; assay type: functional
[43] = tested on: Rattus norvegicus; test: Percentage of non disrupted rats that selected the drug lever, when given at a dose of 1.00 mg/kg in […]-Trained rats; assay type: functional
[44] = tested on: Rattus norvegicus; test: Percentage of non disrupted rats that selected the drug lever, when given at a dose of 1.00 mg/kg in S-Amphetamine-Trained rats; assay type: functional
[45] = tested on: Rattus norvegicus; test: Percentage of non disrupted rats that selected the drug lever, when given at a dose of 2.00 mg/kg; assay type: functional
[46] = tested on: Rattus norvegicus; test: Percentage of non disrupted rats that selected the drug lever, when given at a dose of 2.00 mg/kg in […]-Trained rats; assay type: functional
[47] = tested on: Rattus norvegicus; test: Percentage of non disrupted rats that selected the drug lever, when given at a dose of 2.50 mg/kg in […]-Trained rats; assay type: functional; settings: dose 2.5 mg/kg
[48] = tested on: Rattus norvegicus; test: Percentage of non disrupted rats that selected the drug lever, when given at a dose of 0.5 mg/kg in […]-Trained rats; assay type: functional
[49] = tested on: Rattus norvegicus; test: Percentage of non disrupted rats that selected the drug lever, when given at a dose of 0.5 mg/kg in S-Amphetamine-Trained rats; assay type: functional
[50] = tested on: Rattus norvegicus; test: Percentage of non disrupted rats that selected the drug lever, when given at a dose of 1.00 mg/kg; assay type: functional
[51] = target: Sodium-dependent serotonin transporter (Rattus norvegicus) (UniProt P31652); test: Number of uptake sites for [3H]paroxetine receptor binding after sub-acute dosing against Frontal cortex; assay type: tissue-based
[52] = target: Sodium-dependent serotonin transporter (Rattus norvegicus) (UniProt P31652); test: Number of uptake sites for [3H]paroxetine receptor binding after sub-acute dosing against Hippocampus
[53] = tested on: Rattus norvegicus; test: Momoamine and metabolic levels observed 2 weeks following sub-acute dosing against Frontal cortex HVA; assay type: ADME, organism-based; settings: in vivo, 336 h
[54] = tested on: Rattus norvegicus; test: Momoamine and metabolic levels observed at 3 hr postdrug against, at a dose of 20 mg/kg Frontal cortex HVA; assay type: ADME, organism-based; set-up: dose 20 mg/kg; settings: in vivo
[55] = tested on: Rattus norvegicus; test: Effective dose was evaluated for drug discrimination in I-trained rats, when given at a dose of 2.32 micro mol/kg; assay type: functional
[56] = tested on: Rattus norvegicus; test: Effective dose was evaluated for drug discrimination in I-trained rats, when given at a dose of 0.5 mg/kg; assay type: functional
[57] = tested on: Rattus norvegicus; test: Percentage of non disrupted rats that selected the drug lever, when given at a dose of 1.50 mg/kg; assay type: functional; settings: dose 1.5 mg/kg
[58] = tested on: Rattus norvegicus; test: Percentage of non disrupted rats that selected the drug lever, when given at a dose of 0.75 mg/kg; assay type: functional
[59] = Rattus norvegicus, read-out: ED50

Sequence of Sodium-dependent serotonin transporter (Rattus norvegicus) (P31652 whole entry): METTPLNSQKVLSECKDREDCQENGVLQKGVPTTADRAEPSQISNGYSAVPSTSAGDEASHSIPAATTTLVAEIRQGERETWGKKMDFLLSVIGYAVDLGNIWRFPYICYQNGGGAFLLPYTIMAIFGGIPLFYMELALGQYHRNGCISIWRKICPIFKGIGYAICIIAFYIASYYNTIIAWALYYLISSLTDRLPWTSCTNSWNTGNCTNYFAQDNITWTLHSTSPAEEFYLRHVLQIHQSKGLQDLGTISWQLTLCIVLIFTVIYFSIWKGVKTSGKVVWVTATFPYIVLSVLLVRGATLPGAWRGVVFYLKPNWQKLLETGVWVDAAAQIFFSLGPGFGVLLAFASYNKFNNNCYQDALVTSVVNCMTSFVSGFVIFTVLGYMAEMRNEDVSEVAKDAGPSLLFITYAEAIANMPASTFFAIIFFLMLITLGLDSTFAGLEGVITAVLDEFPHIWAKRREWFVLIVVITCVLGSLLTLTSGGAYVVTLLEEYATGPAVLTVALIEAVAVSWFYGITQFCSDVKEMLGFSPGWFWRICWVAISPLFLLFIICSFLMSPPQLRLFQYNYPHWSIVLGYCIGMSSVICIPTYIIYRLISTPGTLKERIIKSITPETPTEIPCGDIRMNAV

C[C@H](N)Cc1ccccc1 [DEXTROAMPHETAMINE]
ED50 [1]: 0.31 mg/kg and 1.69 µmol/kg

COc1ccc2c(c1C)CC(N)C2 (stereo not given)
Metabolite level [2]: 35 | Metabolite level [3]: 65 | Metabolite level [4]: 509 | Metabolite level [5]: 81 | Metabolite level [6]: 312 | Metabolite level [7]: 633 | Metabolite level [8]: 210 | Metabolite level [9]: 312 | Metabolite level [10]: 88 | Metabolite level [11]: 36 | Metabolite level [12]: 583 | Metabolite level [13]: 256 | Metabolite level [14]: 415 | Metabolite level [15]: 92 | Metabolite level [16]: 54 | Metabolite level [17]: 568 | Metabolite level [18]: 518 | Metabolite level [19]: 434 | Metabolite level [20]: 240 | Metabolite level [21]: 316 | Metabolite level [22]: 74 | Metabolite level [23]: 414 | Metabolite level [24]: 434 | Metabolite level [25]: 716 | Metabolite level [26]: 146 | Metabolite level [27]: 148 | Metabolite level [28]: 113 | Metabolite level [29]: 40 | Metabolite level [30]: 558 | Metabolite level [31]: 272 | Metabolite level [32]: 256 | Metabolite level [33]: 646 | Metabolite level [34]: 476 | Metabolite level [35]: 462 | ED50 [36]: 2.63 µmol/kg | ED50 [37, 59]: 0.81 mg/kg | ED50 ([37]; dose 0.25 mg/kg): 0.56 mg/kg | ED50 [38]: 3.77 µmol/kg | IC50 [39]: 212 nM | SDL [40]: 13% | SDL [41]: 17% | SDL [42]: 25% | SDL [43]: 13% | SDL [44]: 50% | SDL [45]: 100% | SDL [46]: 38% | SDL [47]: 50% | SDL [48]: 11% | SDL [49]: 33% | SDL [50]: 75% | No. of uptake sites [51]: 13.6 | No. of uptake sites [52]: 15.6 | Metabolite level [53]: 59 | Metabolite level [54]: 112

COc1cc(C[C@@H](C)N)ccc1C
ED50 [55]: 2.12 µmol/kg | ED50 [37, 59]: 0.46 mg/kg | ED50 [56]: 0.46 mg/kg | ED50 [38]: 2.12 µmol/kg | IC50 [39]: 200 nM | SDL [40]: 33% | SDL [42]: 38% | SDL [57]: 100% | SDL [50]: 75%

COc1cc(C[C@H](C)N)ccc1C
ED50 [37, 59]: 0.46 mg/kg | ED50 [38]: 2.14 µmol/kg | IC50 [39]: 99 nM | SDL [40]: 17% | SDL [42]: 33% | SDL [58]: 100%
